Laboratory results as given in PMC2180961 (The Journal of Experimental Medicine, 1977).

Experiments:
rat mast cell chymase [1] = molecular target: T1, rat mast cell chymase (Rattus norvegicus, UniProt P09650); test: […]-casein proteolysis assay; type: biochemical
T1 sequence (P09650 21-260): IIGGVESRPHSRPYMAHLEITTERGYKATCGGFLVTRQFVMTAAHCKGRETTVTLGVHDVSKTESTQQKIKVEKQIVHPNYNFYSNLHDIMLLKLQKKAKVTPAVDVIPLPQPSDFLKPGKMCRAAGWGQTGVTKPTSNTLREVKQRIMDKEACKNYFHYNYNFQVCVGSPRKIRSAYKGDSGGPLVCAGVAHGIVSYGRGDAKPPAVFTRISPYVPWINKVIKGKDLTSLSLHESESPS

[2] = system: CCOC(=O)[C@H](Cc1ccc(O)cc1)NC(=O)c1ccccc1; test: purified protein; conditions: 25 C, same experiment as chymase, unit M not printed beside this value
rat mast cell chymase [3] = molecular target: T1, rat mast cell chymase; test: […]-casein proteolysis assay; type: biochemical; conditions: read-out: % inhibition at 300 mM
purified protein = substrate: CCOC(=O)[C@H](Cc1ccc(O)cc1)NC(=O)c1ccccc1; test: purified protein; type: biochemical, Rattus norvegicus; conditions: 25 C, abstract and summary print 1.5 x 10^-3 M (apparent Km)

## NCCc1c[nH]c2ccc(O)cc12 [5-HT]
Rat mast cell chymase [1]
  IC50: 3 mM

## alpha-chymotrypsin (Bos taurus)
[2]
  Km: 1170 µM

## NCCc1c[nH]cn1 [histamine]
Rat mast cell chymase [3]
  inhibition at 300000 µM: 20%

B1: rat mast cell chymase (Rattus norvegicus) (protein)
chain: T1 sequence (P09650 21-260)
Purified protein
  Km: 1560 µM
